The values that follow come from ChEMBL document CHEMBL4390686, “Design, Synthesis, and Pharmacokinetic Evaluation of Phosphate and Amino Acid Ester Prodrugs for Improving the Oral Bioavailability of the HIV-1 Protease Inhibitor Atazanavir” (J Med Chem, 2019).

A word on the solubility: it is the concentration that dissolves in the medium under given conditions. High values mean much dissolved substance, low ones little dissolved substance. The Cmax is the highest concentration seen after dosing. One may read the IC50 as the point on the concentration scale where inhibition reaches its midpoint. As a reminder, the EC50 is the concentration giving half of the maximal effect. As usually defined, the Tmax is the time from dosing to the highest level. For orientation: bioavailability means dose-corrected exposure relative to a reference, in per cent. A low value points to poor availability. One may read the Papp B→A as how fast a substance crosses the layer from the basolateral side. For orientation: efflux ratio means the permeability from basolateral to apical divided by that in the opposite direction, in the common usage. For orientation: Papp A→B means how fast a substance crosses the layer from the apical side. The low end stands for poor permeation, the high end for ready permeation. By pKa is commonly meant the negative logarithm of the acid dissociation constant. The low end stands for a group that gives up its proton readily, the high end for a group that holds its proton tightly.

Converted amounts (≈) assume the structure as drawn. Where only a bound is given, the exact number is not on record here.

The nature of data set [1]: physchem. The note with it: acetate buffer, pH 4.
Description: Aqueous solubility of the compound in pH 4 acetate buffer by RP-UPLC analysis
The conditions of data set [2]: rat, in vivo, po, 3 mg/kg.
Data set [3] can be described thus: physchem. Particulars: 30% CH3CN/phosphate buffer, pH 6.5.
Description: Half life in pH 6.5 30%CH3CN/phosphate buffer at 50 mM by RP-UPLC analysis
A short description of data set [4]: physchem. The note with it: phosphate buffer, pH 6.5.
Description: Aqueous solubility of the compound in pH 6.5 phosphate buffer by RP-UPLC analysis
Another data set concerns the target Protease (Human immunodeficiency virus 1, UniProt Q9YQ12).
Data set [5] relates to Human immunodeficiency virus 1.
Description: (§1) Antiviral activity against HIV1 NL4-3 infected in human MT2 cells assessed as reduction in viral yield measured after 4 days by EnduRen live cell substrate based luciferase reporter gene assay
Data set [6] can be described thus: physchem. The note with it: 30% CH3CN/acetate buffer, pH 4.
Description: Half life in pH 4 30%CH3CN/acetate buffer at 50 mM by RP-UPLC analysis
A short description of data set [7]: AUClast in cannulated Sprague-Dawley rat assessed as (S)-(5S,10S,11S,14S)-11-Benzyl-5,14-di-tert-butyl-3,6,13,16-tetraoxo-8-(4-(pyridin-2-yl)benzyl)-2,17-dioxa-4,7,8,12,15-pentaazaoctadecan-10-yl 2-amino-3-methylbutanoate level at 3 mg/kg equiv of atazanavir administered orally by UPLC/MS/MS analysis. Type of data set: ADME, organism-based. Further details: dose 3 mg/kg, time 0 - last, route oral. The note with it: in vivo, po.

The conditions of data set [8]: rat, in vivo, po, 3 mg/kg. The source holds these as a separate data set.
Description: AUClast in cannulated Sprague-Dawley rat assessed as atazanavir level at 3 mg/kg equiv of atazanavir administered orally by UPLC/MS/MS analysis
Data set [9] in a line: Cmax in cannulated Sprague-Dawley rat assessed as (S)-(5S,10S,11S,14S)-11-Benzyl-5,14-di-tert-butyl-3,6,13,16-tetraoxo-8-(4-(pyridin-2-yl)benzyl)-2,17-dioxa-4,7,8,12,15-pentaazaoctadecan-10-yl 2-amino-3-methylbutanoate level at 3 mg/kg equiv of atazanavir administered orally by UPLC/MS/MS analysis. Type of data set: ADME, organism-based. Also on record: dose 3 mg/kg, route oral. The note with it: in vivo, po.

Data set [10] is described as follows: physchem. Particulars: 30% CH3CN/HCl buffer, pH 1.
Description: Half life in pH 1 30%CH3CN/HCl buffer at 50 mM by RP-UPLC analysis
Data set [11] in a line: physchem. Particulars: HCl buffer, pH 1.
Description: Aqueous solubility of the compound in pH 1 HCl buffer by RP-UPLC analysis
The nature of data set [12]: Tmax in cannulated Sprague-Dawley rat assessed as (S)-(5S,10S,11S,14S)-11-Benzyl-5,14-di-tert-butyl-3,6,13,16-tetraoxo-8-(4-(pyridin-2-yl)benzyl)-2,17-dioxa-4,7,8,12,15-pentaazaoctadecan-10-yl 2-amino-3-methylbutanoate level at 3 mg/kg equiv of atazanavir administered orally by UPLC/MS/MS analysis. Format: ADME, organism-based. The note with it: in vivo, po.
For data set [13] the following is noted: rat, in vivo, po, 3 mg/kg. The source holds these as a separate data set.
Data set [14] in a line: Cmax in cannulated Sprague-Dawley rat assessed as (R)-(5S,10S,11S,14S)-11-Benzyl-5,14-di-tert-butyl-3,6,13,16-tetraoxo-8-(4-(pyridin-2-yl)benzyl)-2,17-dioxa-4,7,8,12,15-pentaazaoctadecan-10-yl 2-Amino-3-methylbutanoate level at 3 mg/kg equiv of atazanavir administered orally by UPLC/MS/MS analysis. Type of data set: ADME, organism-based. Also on record: dose 3 mg/kg, route oral. Particulars: in vivo, po.

The nature of data set [15]: Tmax in cannulated Sprague-Dawley rat assessed as (R)-(5S,10S,11S,14S)-11-Benzyl-5,14-di-tert-butyl-3,6,13,16-tetraoxo-8-(4-(pyridin-2-yl)benzyl)-2,17-dioxa-4,7,8,12,15-pentaazaoctadecan-10-yl 2-Amino-3-methylbutanoate level at 3 mg/kg equiv of atazanavir administered orally by UPLC/MS/MS analysis. The note with it: in vivo, po. Format: ADME, organism-based.
The nature of data set [16]: Oral bioavailability in rat. Format: ADME, organism-based. Particulars: in vivo.
Data set [17] is described as follows: Aqueous solubility of the compound in pH 5 buffer by RP-UPLC analysis. Type of data set: physicochemical.
Data set [18] in a line: Drug recovery in feces of po dosed rat. Format: ADME, organism-based. Particulars: faeces, read-out: Drug recovery.
The nature of data set [19]: in vitro. Particulars: human, Caco-2.
Description: Apparent permeability across basolateral to apical side in human Caco2 cells at 2 uM
Data set [20] is described as follows: Drug recovery in feces of po dosed dog. Type of data set: ADME, organism-based, Canis lupus familiaris. Particulars: faeces, read-out: Drug recovery.
Data set [21] in a line: Prodrug conversion in intestinal content of closed loop rat intestinal model assessed as atazanavir recovery at 1 mg/kg administered as cassette dose by LC/MS analysis. Format: ADME, organism-based. Particulars: in vivo.
Data set [22] in a line: in vitro. Particulars: human, Caco-2. This is another data set of the same source.
Description: Efflux ratio of apparent permeability across basolateral to apical side over apical to basolateral side in human Caco2 cells
A short description of data set [23]: in vitro. Particulars: human, Caco-2. This is another data set of the same source.
Description: Apparent permeability across apical to basolateral side in human Caco2 cells at 2 uM
Data set [24] deals with T1, UDP-glucuronosyltransferase 1A1 (Homo sapiens, UniProt P22309).
T1 sequence (P22309 whole entry): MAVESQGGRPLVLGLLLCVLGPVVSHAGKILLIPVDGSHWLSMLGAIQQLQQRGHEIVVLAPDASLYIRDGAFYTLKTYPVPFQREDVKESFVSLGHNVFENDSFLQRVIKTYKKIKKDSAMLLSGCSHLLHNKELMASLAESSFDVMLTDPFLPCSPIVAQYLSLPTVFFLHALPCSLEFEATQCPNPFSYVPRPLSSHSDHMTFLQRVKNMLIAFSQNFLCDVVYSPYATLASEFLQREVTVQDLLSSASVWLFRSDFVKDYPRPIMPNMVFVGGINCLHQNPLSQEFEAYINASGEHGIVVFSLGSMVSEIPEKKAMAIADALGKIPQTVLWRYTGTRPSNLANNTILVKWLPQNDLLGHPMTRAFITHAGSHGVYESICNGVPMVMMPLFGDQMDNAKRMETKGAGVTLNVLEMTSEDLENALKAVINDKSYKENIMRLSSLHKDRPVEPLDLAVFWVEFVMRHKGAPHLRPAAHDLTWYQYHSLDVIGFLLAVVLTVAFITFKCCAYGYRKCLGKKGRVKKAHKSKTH
The experiment in a line: Inhibition of UGT1A1 in human liver microsomes using beta-estradiol as substrate preincubated for 5 mins followed by substrate addition and measured after 40 mins by LC-MS/MS analysis. Type of data set: ADME.

A short description of data set [25]: Oral bioavailability in dog. Type of data set: ADME, organism-based, Canis lupus familiaris. The note with it: in vivo.
A short description of data set [26]: Dissociation constant, pKa of the compound. Type of data set: physicochemical.
A short description of data set [27]: Elimination half life in rat hepatocytes at 1 uM in absence of esterase inhibitor PMSF/CYP450 inhibitor ABT. Format: ADME, cell-based, Hepatocyte. Particulars: read-out: beta t1/2.
Data set [28] can be described thus: Prodrug conversion in mesenteric vein plasma of closed loop rat intestinal model assessed as atazanavir recovery at 1 mg/kg administered as cassette dose by LC/MS analysis. Format: ADME, organism-based. The note with it: in vivo.
For data set [29], the target named is T2, UDP-glucuronosyltransferase 1A1 (Rattus norvegicus, UniProt Q64550).
T2 sequence (Q64550 whole entry): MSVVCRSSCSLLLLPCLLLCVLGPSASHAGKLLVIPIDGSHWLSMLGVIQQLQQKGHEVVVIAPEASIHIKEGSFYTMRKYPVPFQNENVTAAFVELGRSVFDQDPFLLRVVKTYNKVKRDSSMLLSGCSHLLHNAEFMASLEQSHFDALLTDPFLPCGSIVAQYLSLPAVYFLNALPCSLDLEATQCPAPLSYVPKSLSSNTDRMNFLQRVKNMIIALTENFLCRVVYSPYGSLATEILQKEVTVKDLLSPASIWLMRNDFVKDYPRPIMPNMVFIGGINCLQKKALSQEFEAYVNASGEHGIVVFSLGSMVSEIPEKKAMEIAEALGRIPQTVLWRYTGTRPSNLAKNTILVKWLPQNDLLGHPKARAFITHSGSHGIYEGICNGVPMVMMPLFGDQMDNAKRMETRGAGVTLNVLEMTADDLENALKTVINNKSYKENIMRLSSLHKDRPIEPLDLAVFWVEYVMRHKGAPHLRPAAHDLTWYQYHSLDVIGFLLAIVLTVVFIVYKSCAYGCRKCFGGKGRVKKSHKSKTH
The experiment in a line: Inhibition of UGT1A1 in rat liver microsomes using beta-estradiol as substrate preincubated for 5 mins followed by substrate addition and measured after 40 mins by LC-MS/MS analysis. Format: ADME. A general note: Liver microsomes are vesicles of endoplasmic reticulum, rich in cytochrome P450 enzymes.

Data set [30] deals with Human immunodeficiency virus 1. Nature of the data set: microbe, parasite or virus in culture. The note with it: Human immunodeficiency virus 1, NL4-3, MT2, 96 h.
Description: as §1
Data set [31] can be described thus: physchem. The note with it: phosphate buffer, pH 7.4.
Description: Aqueous solubility of the compound in pH 7.4 phosphate buffer by RP-UPLC analysis
Data set [32] addresses T1, UDP-glucuronosyltransferase 1A1. The experiment in a line: Inhibition of recombinant human UGT1A1 using bilirubin as substrate preincubated for 5 mins followed by substrate addition and measured after 40 mins by LC-MS/MS analysis. Type of data set: ADME.
Data set [33] addresses T2, UDP-glucuronosyltransferase 1A1. Nature of the data set: Inhibition of recombinant rat UGT1A1 using beta-estradiol as substrate preincubated for 5 mins followed by substrate addition and measured after 40 mins by LC-MS/MS analysis. Format: ADME.
A short description of data set [34]: Prodrug conversion in intestinal homogenates of closed loop rat intestinal model assessed as atazanavir recovery at 1 mg/kg administered as cassette dose by LC/MS analysis. Type of data set: ADME, organism-based, Intestine. The note with it: in vivo.
Data set [35] is described as follows: Aqueous solubility of the compound in pH 3 buffer by RP-UPLC analysis. Format: physicochemical.
Data set [36] is described as follows: Aqueous solubility of the compound in pH 4 citrate buffer by RP-UPLC analysis. Format: physicochemical.
A short description of data set [37]: Drug recovery in feces of po dosed human. Type of data set: ADME, organism-based. Particulars: faeces, read-out: Drug recovery.

Protease, sequence (Q9YQ12 whole entry): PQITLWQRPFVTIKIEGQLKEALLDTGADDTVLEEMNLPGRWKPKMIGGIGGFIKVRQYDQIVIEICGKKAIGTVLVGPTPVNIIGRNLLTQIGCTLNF
Description for Protease: Inhibition of HIV1 protease activity

Turning to `COC(=O)N[C@H](C(=O)N[C@@H](Cc1ccccc1)[C@H](CN(Cc1ccc(-c2ccccn2)cc1)NC(=O)[C@@H](NC(=O)OC)C(C)(C)C)OC(=O)[C@@H](NC(=O)[C@@H](N)C(C)C)C(C)C)C(C)(C)C`, the solubility is more than 1200 µg/mL in “physchem [1]”, 780 µg/mL (≈ 864 µM) in the data set “physchem [4]” and more than 2150 µg/mL in the data set “physchem [11]”. Moreover, the maximum concentration (Cmax) in data set [2] is 4 nM; in [9] it was 30 nM. The half-life at 50000 µM in “physchem [3]”, in the data set “physchem [6]” and in “physchem [10]” was more than 20.8 days throughout. Besides, the 50% inhibitory concentration (IC50) at Protease lay in the range of 4 to 1140 nM. Also, the EC50 in data set [5] is 0.9 to 1250 nM. The AUClast in data set [7] worked out at 85 nM·h; in data set [8], 20 nM·h. Further, the time to peak (Tmax) amounted to 3 h in [12] and 5 h in data set [13].

For `COC(=O)N[C@H](C(=O)N[C@@H](Cc1ccccc1)[C@H](CN(Cc1ccc(-c2ccccn2)cc1)NC(=O)[C@@H](NC(=O)OC)C(C)(C)C)OC(=O)[C@H](NC(=O)[C@H](N)C(C)C)C(C)C)C(C)(C)C`, the solubility in “physchem [1]” was more than 2200 µg/mL; in “physchem [4]”, 820 µg/mL (≈ 908 µM); in “physchem [11]”, more than 2400 µg/mL. Further, the Cmax was 12 nM in data set [2] and 1430 nM in [14]. Besides, the half-life at 50000 µM in “physchem [3]”, in the data set “physchem [6]” and in the data set “physchem [10]” was more than 20.8 days throughout. In addition, the figures for the time to peak (Tmax) in data set [15] and in [13] were 30 min and 1 h, respectively. For the same compound, the IC50 against Protease is 4 to 1140 nM. In data set [5], this compound displayed an EC50 of 0.9 to 1250 nM. For the same compound, in data set [8], the AUClast was 53 nM·h.

Consider `COC(=O)N[C@H](C(=O)N[C@@H](Cc1ccccc1)[C@@H](O)CN(Cc1ccc(-c2ccccn2)cc1)NC(=O)[C@@H](NC(=O)OC)C(C)(C)C)C(C)(C)C` [ATAZANAVIR], for which the results for the bioavailability in [16] and in [25] were 15% and 36%, respectively. For the same compound, the solubility is less than 1 µg/mL in [17], less than 1 µg/mL in “physchem [31]”, 28 µg/mL (≈ 39.7 µM) in data set [35] and less than 1 µg/mL in data set [36]. Also, the dose excreted is 39% in data set [18], 79% in data set [20] and 79% in data set [37]. For the same compound, the Papp B→A at 2 µM in “in vitro [19]” amounted to 20.3 ×10⁻⁶ cm/s. Moreover, the Drug recovery is 16.1% in [21], 1.4% in data set [28] and 1.6% in data set [34]. Moreover, in the data set “in vitro [22]”, the efflux ratio was more than 14. The same compound came in with an apparent permeability from apical to basolateral (Papp A→B) at 2 µM in “in vitro [23]” of less than 1.5 ×10⁻⁶ cm/s. In addition, the IC50 against Protease is 0.3 nM; in data set [24] it was 600 nM; in data set [29], 3.4 µM; in [32] it was 300 nM; in data set [33], 4.2 µM. The compound further displayed a pKa in data set [26] of 4.7. For the same compound, the half-life at 1 µM in [27] amounted to 27 min. Also, the midpoint of the response in [30], the EC50, lay at 0.7 nM.
